Marks after values point to notes of the source that are not given here.
Experiments:
[1] = patients who received the drug; cited from earlier work
[2] = tested on: cerebral infarction after 2 hours middle cerebral artery occlusion in male Wistar rats; test: Size of cerebral infarction (triphenyltetrazolium chloride staining, planimetry) 24 h after reperfusion following 2 h middle cerebral artery occlusion; type: in vivo, rat; conditions: for size of cerebral infarction, Cerebral cortex / size of cerebral infarction, Striatum / size of cerebral infarction, Total: mean ± SD
Description: These rats were anesthetized with a gas mixture of 2% halothane, 49% oxygen and 49% laughing gas, i.e. N2O, and kept under spontaneous breathing. Subsequently, a median incision was made in the neck of the rat placed on its back, and the right common carotid artery was exposed. After an intraperitoneal injection of 100 units of heparin, the root of the right middle cerebral artery was occluded by inserting 4·0 nylon thread coated with silicone into the right internal carotid artery from the bifurcation of the internal and external carotid arteries. The tip of the nylon thread was placed 18 mm from the bifurcation. After suture of the incision of the skin, the rats were allowed to recover from anesthesia. During surgery, an electronic thermometer was inserted into the rectum, and the temperature of the rectum was maintained at 37.0±0.1° C. with a lamp.
Five minutes before reperfusion of blood flow, the rats were anesthetized again. After opening the skin suture, the cerebral blood flow was resumed by removing the nylon thread by 5 mm 2 hours after middle cerebral artery occlusion. […] After recovery from anesthesia, the rats were allowed to access food and water freely.
Twenty-four hours after recovery of blood flow, sodium pentobarbital was intraperitoneally administered to the rats for anesthesia. Subsequently, the brain was perfused with heparinized-physiological saline, and the rat was decapitated. The brain was quickly taken out, and rinsed in physiological saline. The brain was sliced coronally between the optic chiasm and the caucal edge of the mammillary body at a thickness of 2 mm. These brain slices were subjected to incubation with 2% triphenyltetrazolium chloride in phosphate buffer (0.1 mol/L, pH 7.4) at 37° C. As a result, due to the action of dehydrogenase present in viable cells, triphenyltetrazolium chloride was reduced, and the tissue was stained in dark red. On the other hand, the dead tissue in the infarcted area was not stained. These brain slices were preserved in phosphate-buffered formalin overnight. […] The obtained size of cerebral infarction was subjected to analysis of variance and the Scheffe test.
The values in the table (unit: mm^3) indicate the size of cerebral infarction as the “mean ±standard deviation”, while “*” denotes a case in which it was significant versus the control group by p<0.05, and “**” denotes a case in which it was significant versus the control group by p<0.01.

[3] = tested on: neutrophils; test: Number of neutrophils in brain sections (myeloperoxidase immunohistochemistry) after 2 h middle cerebral artery occlusion and reperfusion; type: in vivo, rat; conditions: for number of neutrophils, +0.7 mm to the bregma / number of neutrophils, +1.7 mm to the bregma / number of neutrophils, −0.3 mm to the bregma: 1000 mg/kg i.p. twice
Procedure: (§1) One of the causes for organ dysfunction resulting from ischemia is reperfusion injury after recovery of blood flow, and the inflammatory response is an important factor which induces reperfusion injury. Therefore, as an index of inflammation subsequent to reperfusion of blood flow, the numbers of neutrophils and macrophages were determined.
(§2) Thirty-two male Wistar rats weighting about 300 g were divided into 4 groups with 8 rats in each. The middle cerebral artery of all rats was occluded for two hours, as shown in Example 1. […] Subsequently, 12 or 24 hours after recovery of blood flow, the brain was taken out after perfusion with physiological saline. Frozen sections having 6 μm thick was prepared at a distance of about 1.7 mm rostral to the bregma, i.e. anterior fontanel, 0.7 mm rostral to the bregma toward the rostral side, and 0.3 mm caudal to the bregma.
After observing these frozen sections by light microscopy, the total numbers of neutrophils on the ischemic and non-ischemic sides were obtained rseparately. Also, frozen sections obtained from identical rats were subjected to immunochemistry with an antibody for ED1 which is a cell surface marker of macrophages. […] Therefore, with regard to ED1-positive cells, the difference in the number of cells between the ischemic and non-ischemic sides was calculated. The difference was determined as the number of macrophages and compared between each corresponding group.

[4] = tested on: ED1-positive cells (macrophages); test: Number of ED1-positive cells / macrophages in brain sections (ED1 immunohistochemistry) after 2 h middle cerebral artery occlusion and reperfusion; type: in vivo, rat; conditions: for number of ED1-positive cells: versus control; for number of ED1-positive cells, Differences (number of macrophages), +0.7 mm to the bregma / number of ED1-positive cells, Differences (number of macrophages), +1.7 mm to the bregma / number of ED1-positive cells, Differences (number of macrophages), −0.3 mm to the bregma: difference between ischemic and non-ischemic sides; for number of ED1-positive cells, Differences (number of macrophages), +0.7 mm to the bregma / number of ED1-positive cells, Differences (number of macrophages), +1.7 mm to the bregma / number of ED1-positive cells, Differences (number of macrophages), −0.3 mm to the bregma / number of ED1-positive cells, +0.7 mm to the bregma / number of ED1-positive cells, +1.7 mm to the bregma / number of ED1-positive cells, −0.3 mm to the bregma: 1000 mg/kg i.p. twice
Procedure: as §1, §2
After observing these frozen sections by light microscopy, the total numbers of neutrophils on the ischemic and non-ischemic sides were obtained rseparately. Also, frozen sections obtained from identical rats were subjected to immunochemistry with an antibody for ED1 which is a cell surface marker of macrophages. ED1 is considered to exist in cells besides macrophages, and in fact, ED1-positive cells were also observed on the non-ischemic side in the experiment. However, as in Table 2, neutrophils were not observed on non-ischemia side, where inflammation was not observed. Therefore, with regard to ED1-positive cells, the difference in the number of cells between the ischemic and non-ischemic sides was calculated. The difference was determined as the number of macrophages and compared between each corresponding group. In Tables 2 and 3, “*” denotes a case in which significant differences versus the control group were observed by p<0.05 by Fisher's PLSD (protected least significant difference) tests, and “**” denotes a case in which significant difference was observed by p<0.01.

[5] = tested on: pyramidal neurons in the hippocampal CA-1 region; conditions: administration prior to transient ischemia (5 or 10 minutes forebrain ischemia), rat; cited from earlier work
[6] = tested on: neurons in the rat striatum; conditions: administered 4 times: immediately, 6, 24 and 48 hours after 15 minutes of transient ischemia, rats; cited from earlier work
[7] = administration after ischemia, 200 mg/kg i.p. immediately and 6 h after reperfusion
[8] = administration after ischemia, 500 mg/kg i.p. immediately and 6 h after reperfusion
[9] = administration after ischemia, 1000 mg/kg i.p. immediately and 6 h after reperfusion
[10] = administration before ischemia, 1000 mg/kg i.p. once 10 min before occlusion, 24 h after reperfusion
[11] = 12 hours after onset of reperfusion, ischemic side
[12] = 12 hours after onset of reperfusion, non-ischemic side
[13] = 24 hours after onset of reperfusion, ischemic side
[14] = 24 hours after onset of reperfusion, non-ischemic side
[15] = 12 hours after the onset of reperfusion
[16] = 12 hours after the onset of reperfusion, ischemic side
[17] = 12 hours after the onset of reperfusion, non-ischemic side
[18] = 24 hours after the onset of reperfusion
[19] = 24 hours after the onset of reperfusion, ischemic side
[20] = 24 hours after the onset of reperfusion, non-ischemic side

Q: For `CC1=NN(c2ccccc2)C(=O)C1` [edaravone], which “patients who showed abnormal values in laboratory tests on the liver function” value [1] is on record?
A: 21.4%

Q: For `N[C@@H](Cc1c[nH]cn1)C(=O)O` [histidine], which “infarcted volume compared with that of the control group” value (“infarcted volume compared with that” for short) ([2]; 200 mg/kg immediately after reperfusion and 6 hours thereafter) is on record?
A: 71%

Q: And the “infarcted volume compared with that” value ([2]; 500 mg/kg immediately after reperfusion and 6 hours thereafter)?
A: 39%

Q: And the “infarcted volume compared with that” value ([2]; 1000 mg/kg immediately after reperfusion and 6 hours thereafter)?
A: 7%

Q: What about the “size of cerebral infarction, Cerebral cortex” value (from here on “size … Cerebral cortex”) [2, 7] of the same molecule?
A: 78.8 ± 52.3 mm^3

Q: What about the “size of cerebral infarction, Striatum” value [2, 7] of the same molecule?
A: 34.3 ± 23.0 mm^3

Q: What about the “size of cerebral infarction, Total” value [2, 7] of the same molecule?
A: 113.2 ± 74.0 mm^3

Q: And the “size … Cerebral cortex” value [2, 8]?
A: 39.9 ± 44.5 mm^3

Q: And the “size of cerebral infarction, Striatum” value [2, 8]?
A: 19.1 ± 24.4** mm^3

Q: And the “size of cerebral infarction, Total” value [2, 8]?
A: 59.0 ± 63.4* mm^3

Q: And the “size … Cerebral cortex” value [2, 9]?
A: 7.5 ± 13.3** mm^3

Q: And the “size of cerebral infarction, Striatum” value [2, 9]?
A: 3.3 ± 12.8** mm^3

Q: What about the “size of cerebral infarction, Total” value [2, 9] of the same molecule?
A: 10.7 ± 14.5** mm^3

Q: And the “size … Cerebral cortex” value [2, 10]?
A: 81.4 ± 26.0 mm^3

Q: And the “size of cerebral infarction, Striatum” value [2, 10]?
A: 34.4 ± 16.0 mm^3

Q: What about the “size of cerebral infarction, Total” value [2, 10] of the same molecule?
A: 115.8 ± 39.2 mm^3

Q: And the “size of infarction compared with that of the control group” value ([2]; pre-ischemic histidine 1000 mg/kg administration group)?
A: no significant difference

Q: What about the neutrophil infiltration ([3]; 12 hours after ischemia, histidine-administration group versus control) of the same molecule?
A: significantly suppressed

Q: What about the “number of neutrophils, +0.7 mm to the bregma” value (“number of neutrophils, +0.7 mm” below) [3, 11] of the same molecule?
A: 128 ± 82

Q: And the “number of neutrophils, +1.7 mm to the bregma” value (shortened to “number of neutrophils, +1.7 mm”) [3, 11]?
A: 101 ± 80

Q: What about the “number of neutrophils, −0.3 mm to the bregma” value (“number of neutrophils, −0.3 mm” below) [3, 11] of the same molecule?
A: 106 ± 54

Q: What about the “number of neutrophils, +0.7 mm” value [3, 12] of the same molecule?
A: 0 ± 0

Q: What about the “number of neutrophils, +1.7 mm” value [3, 12] of the same molecule?
A: 1 ± 2

Q: And the “number of neutrophils, −0.3 mm” value [3, 12]?
A: 0 ± 0

Q: And the “number of neutrophils, +0.7 mm” value [3, 13]?
A: 250 ± 169

Q: What about the “number of neutrophils, −0.3 mm” value [3, 13] of the same molecule?
A: 287 ± 162

Q: What about the “number of neutrophils, +0.7 mm” value [3, 14] of the same molecule?
A: 0 ± 0

Q: What about the “number of neutrophils, +1.7 mm” value [3, 14] of the same molecule?
A: 1 ± 2

Q: What about the “number of neutrophils, −0.3 mm” value [3, 14] of the same molecule?
A: 0 ± 0

Q: What about the “number of ED1-positive cells” value ([4]; 12 hours after ischemia for 2 hours, cross section at +0.7 mm rostral to the bregma) of the same molecule?
A: significantly decreased

Q: And the “number of ED1-positive cells, Differences (number of macrophages), +0.7 mm to the bregma” value [4, 15]?
A: 123 ± 100*

Q: And the “number of ED1-positive cells, Differences (number of macrophages), +1.7 mm to the bregma” value [4, 15]?
A: 135 ± 101

Q: And the “number of ED1-positive cells, Differences (number of macrophages), −0.3 mm to the bregma” value [4, 15]?
A: 92 ± 107

Q: What about the “number of ED1-positive cells, +0.7 mm to the bregma” value [4, 16] of the same molecule?
A: 450 ± 190

Q: What about the “number of ED1-positive cells, +1.7 mm to the bregma” value [4, 16] of the same molecule?
A: 366 ± 149

Q: What about the “number of ED1-positive cells, −0.3 mm to the bregma” value [4, 16] of the same molecule?
A: 363 ± 186

Q: And the “number of ED1-positive cells, +0.7 mm to the bregma” value [4, 17]?
A: 328 ± 113

Q: And the “number of ED1-positive cells, +1.7 mm to the bregma” value [4, 17]?
A: 238 ± 95

Q: What about the “number of ED1-positive cells, −0.3 mm to the bregma” value [4, 17] of the same molecule?
A: 309 ± 72

Q: And the “number of ED1-positive cells” value ([4]; 24 hours after ischemia, all cross sections)?
A: significant decreases

Q: What about the “number of ED1-positive cells, Differences (number of macrophages), +0.7 mm to the bregma” value [4, 18] of the same molecule?
A: 141 ± 104*

Q: What about the “number of ED1-positive cells, Differences (number of macrophages), +1.7 mm to the bregma” value [4, 18] of the same molecule?
A: 125 ± 72*

Q: What about the “number of ED1-positive cells, Differences (number of macrophages), −0.3 mm to the bregma” value [4, 18] of the same molecule?
A: 190 ± 93*

Q: And the “number of ED1-positive cells, +0.7 mm to the bregma” value [4, 19]?
A: 264 ± 101

Q: And the “number of ED1-positive cells, +1.7 mm to the bregma” value [4, 19]?
A: 230 ± 57

Q: What about the “number of ED1-positive cells, −0.3 mm to the bregma” value [4, 19] of the same molecule?
A: 340 ± 107

Q: What about the “number of ED1-positive cells, +0.7 mm to the bregma” value [4, 20] of the same molecule?
A: 124 ± 34

Q: What about the “number of ED1-positive cells, +1.7 mm to the bregma” value [4, 20] of the same molecule?
A: 104 ± 28

Q: And the “number of ED1-positive cells, −0.3 mm to the bregma” value [4, 20]?
A: 150 ± 46

Q: And the “programmed death (delayed neuronal death) of neurons” value [5]?
A: depressed

Q: And the “neuronal death 7 days after ischemia caused by apoptosis” value [6]?
A: depressed

Source: patent US20100113544A1, “Suppressant for cerebral infarction attributed to long-time ischemia” (Ehime University, priority 2004, published 2010)
